Data: patent publication US20140058108A1 (SINOXA PHARMA UG, priority 2010, published 2014)

How the values were obtained:
[1] = test system: 5-HT2B receptors of pulmonary arteries in pigs; test: 5-HT-induced, 5-HT2B-mediated relaxing of PGF2α-pre-contracted pulmonary arteries in pigs (functional receptor assay); type: cell-based; settings: under physiological conditions; not antagonized by maximum 5-HT concentrations
Source text: (§1) In this case, the pA2 value reflects the negatively decade logarithm of the concentration of an antagonist, which makes it necessary to double the agonist concentration in order to restore the initial effect of the agonist without antagonists.
The vascular reaction in the preparations of pulmonary arteries in pigs, which are pre-contracted by means of PGF2α, were used as an assay for the specific interaction with 5-HT2B receptors (see FIG. 1A). […] Ketanserin is a standard-5HT2A antagonist, SB204741 is a standard-5-HT2B antagonist.

[2] = Stability of lisuride dissolved in water (HPL chromatogram); settings: room temperature, FIG. 3A
[3] = target: T1, 5-HT2A receptors of coronary arteries in pigs (Sus scrofa, UniProt P50129); test: Inhibition of 5-HT2A-mediated, 5-HT-induced contraction of coronary arteries in pigs; type: cell-based; settings: n in own column
T1 construct: 5-HT2A-mediated contraction of the coronary arteries in pigs; from tissue; host or cells: isolated pig coronary artery
Source text: as §1

[4] = test system: Human smooth muscle cells; test: 5-HT-stimulated cell growth, 3H-thymidine uptake; type: cell-based; settings: 10 μmol/l test substance, 5-HT 10-8 mol/l, 24 hours; FIG. 2
Description: To determine the cell growth, 3H-thymidine (Amersham) was then added to the cell cultures, and the latter were incubated for 24 hours. After the adhesion of the cells, the culture medium was replaced by a standard medium with 0.2% fetal calf serum to stop growth and incubated again for 48 hours.
In order to test antiproliferative actions of the described substances, the cell cultures were then pre-incubated first at a concentration of 10 μmol/l of the test substances. […] To measure the growth of cells, 3H-thymidine (Amersham) was then added to the cultures, and the latter was incubated for 24 hours. Then, 2 incubations were carried out in iced common salt solution with a phosphate buffer, and then a 30-minute incubation was carried out in iced 10% trichloroacetic acid at 4° C. The cells were then incubated in 0.1 molar NaOH solution (0.5 ml/incubation vessel). After neutralization with acetic acid, the 3H-thymidine uptake was measured with liquid scintillation (as 3× determination).

[5] = test system: 5-HT-induced effects in rats; settings: cited from earlier work
[6] = test system: monocrotaline-induced pulmonary high pressure in rats; test: Monocrotaline-induced pulmonary high pressure in rats; type: in vivo, male Sprague-Dawley rats; settings: MCT 60 mg/kg s.c.; treatment bid via stomach tube days 15-28; measured day 28; lisuride 0.25 mg/kg, terguride 2.5 mg/kg; average ± SEM, N = 6
Source text: Monocrotaline (MCT) is a toxin from plants of the Crotalaria species, which damages the endothelial cells of the pulmonary arteries after a single injection in rats, with the following hypertrophy of the smooth vascular musculature and persistent severe pulmonary high pressure. The MCT-induced pulmonary hypertension in rats is a well-established and validated model of human pulmonary hypertension, and all now-approved therapeutic agents have shown an action in this model, at least when they were used before the toxically-induced tissue remodeling.
MCT (60 mg/kg) was administered subcutaneously as a single injection in male Sprague-Dawley rats, and an identical volume of isotonic common salt solution was injected into the control animals. […]
On day 28 of the experiment, two hours after the last administration of substance, the animals were narcotized with use of pentobarbital. […] The mean arterial system pressure and the systolic pressure were measured in the right heart ventricle. […]
The s.c. injection of MCT, as described above, results in severe damage of the pulmonary vascular endothelium as well as excessive production of connective tissue and development of a pulmonary hypertension. Accumulation of collagen, measured as hydroxyproline content of the pulmonary tissue and increase of the right-ventricular systolic pressure reflect the described structural and functional changes.

[7] = Antioxidative action / radical trap (binding of oxygen radicals)
Source text: Because of the small amounts of substances contained in the samples and the short life of the reaction products, it was not possible to isolate them for structural clarification.

T1 sequence (P50129 whole entry): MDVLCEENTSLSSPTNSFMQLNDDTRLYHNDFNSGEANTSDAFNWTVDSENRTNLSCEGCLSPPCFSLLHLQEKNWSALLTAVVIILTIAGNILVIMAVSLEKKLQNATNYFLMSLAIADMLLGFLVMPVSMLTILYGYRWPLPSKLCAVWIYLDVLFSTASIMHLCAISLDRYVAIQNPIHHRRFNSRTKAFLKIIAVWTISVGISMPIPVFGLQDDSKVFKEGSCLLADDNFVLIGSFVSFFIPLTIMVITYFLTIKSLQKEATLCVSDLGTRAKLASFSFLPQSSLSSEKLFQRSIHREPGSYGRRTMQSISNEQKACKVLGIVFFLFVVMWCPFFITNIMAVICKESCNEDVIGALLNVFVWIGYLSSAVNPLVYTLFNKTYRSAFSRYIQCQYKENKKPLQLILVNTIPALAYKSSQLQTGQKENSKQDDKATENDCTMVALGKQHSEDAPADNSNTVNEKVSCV

CCN(CC)C(=O)N[C@H]1C=C2c3cccc4[nH]cc(c34)C[C@H]2N(C)C1 [Lisuride, 3-(9,10-didehydro-6-methylergoline-8alpha-yl)-1,1-diethylurea]
type of antagonism of the 5-HT2B receptor [1]: irreversible antagonist | stability dissolved in water [2]: quickly broken down

CCNC(=O)NC1C=C2c3cccc4[nH]cc(c34)CC2N(C)C1 (stereo not drawn) [N″-Monodesethyllisuride]
5-HT2A pA2 [3]: 8.29 ± 0.03

CCN(CC)C(=O)N[C@H]1C[C@@H]2c3cccc4[nH]cc(c34)C[C@H]2N(C)C1 [Terguride, trans-dihydrolisuride]
cell proliferation (3H-thymidine uptake) [4]: Reduction of cell proliferation | 5-HT-induced weight increase of the heart and liver ([5]; rats [Hauso 2007]): prevented | behavior abnormalities and fibrotic skin changes at the injection sites of 5-HT ([5]; rats [Hauso 2007]): suppressed | development of pulmonary valve failure ([5]; rats, daily 5-HT over 4 months [Hauso 2007]): not detectable | Systolic Right-Ventricular Pressure (RVPsys) [6]: 39 ± 3 mmHG | free oxygen radicals taken up by an individual molecule [7]: up to 4
